From patent US20250002507A1, “7,8-DIHYDRO-5H-1,6-NAPHTHYRIDINE DERIVATIVES AS POSITIVE ALLOSTERIC MODULATORS OF THE MUSCARINIC ACETYLCHOLINE RECEPTOR M4 FOR TREATING NEUROLOGICAL AND PSYCHIATRIC DISORDERS” (Vanderbilt University, priority 2021, published 2025)

Biological target: T1, Human M4 (Homo sapiens, UniProt P08173)
T1 construct: expressed in transfected cells
T1 sequence (P08173 1-479): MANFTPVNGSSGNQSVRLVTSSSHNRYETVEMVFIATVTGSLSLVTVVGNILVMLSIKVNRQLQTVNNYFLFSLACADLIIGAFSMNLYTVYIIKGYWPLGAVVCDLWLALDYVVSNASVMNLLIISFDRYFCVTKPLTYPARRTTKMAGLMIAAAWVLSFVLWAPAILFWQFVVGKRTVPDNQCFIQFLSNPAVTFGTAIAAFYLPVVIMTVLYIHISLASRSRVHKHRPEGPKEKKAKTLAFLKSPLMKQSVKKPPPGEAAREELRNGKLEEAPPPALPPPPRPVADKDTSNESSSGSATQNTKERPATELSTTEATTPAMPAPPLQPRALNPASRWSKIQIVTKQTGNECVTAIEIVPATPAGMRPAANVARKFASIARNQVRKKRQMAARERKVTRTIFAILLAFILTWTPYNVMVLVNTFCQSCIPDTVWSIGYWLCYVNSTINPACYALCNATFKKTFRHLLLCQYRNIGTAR
Assay: mAChR M4 cell-based functional assay (calcium flux, potentiation of EC20 acetylcholine response), hM4-Gqi5 CHO-K1 cells
Details: for Emax at 30 µM: % ACh maximum at 30 μM, human M4, read-out: Emax; for EC50: hM4-Gqi5 CHO-K1 cells, calcium flux, PAM of EC20 acetylcholine, read-out: Human M4 EC50
Description: Human and rat M4 cDNAs, along with the chimeric G protein Gqi5, were transfected into Chinese hamster ovary (CHO-K1) cells purchased from the American Type Culture Collection using Lipofectamine2000. hM4-Gqi5 cells were grown in Ham's F-12 medium containing 10% heat-inactivated fetal bovine serum (FBS), 20 mM HEPES, 50 μg/mL G418 sulfate, and 500 μg/mL Hygromycin B. rM4-Gqi5 cells were grown in DMEM containing 10% heat-inactivated FBS, 20 mM HEPES, 400 μg/mL G418 sulfate, and 500 μg/mL Hygromycin B.
For high throughput measurement of agonist-evoked increases in intracellular calcium, CHO-K1 cells stably expressing muscarinic receptors were plated in growth medium lacking G418 and hygromycin at 15,000 cells/20 μL/well in Greiner 384-well black-walled, tissue culture (TC)-treated, clear-bottom plates (VWR). Cells were incubated overnight at 37° C. and 5% CO2. The next day, cells were washed using an ELX 405 (BioTek) with assay buffer; the final volume was then aspirated to 20 μL. Next, 20 μL of a 2.3 μM stock of Fluo-4/acetoxymethyl ester (Invitrogen, Carlsbad, CA), prepared as a 2.3 mM stock in DMSO and mixed in a 1:1 ratio with 10% (w/v) Pluronic F-127 and diluted in assay buffer, was added to the wells and the cell plates were incubated for 50 min at 37° C. and 5% CO2. Dye was removed by washing with the ELX 405 and the final volume was aspirated to 20 μL. Compound master plates were formatted in an 11 point concentration-response curve (CRC) format (1:3 dilutions) in 100% DMSO with a starting concentration of 10 mM using a BRAVO liquid handler (Agilent). Test compound CRCs were then transferred to daughter plates (240 nL) using the Echo acoustic plate reformatter (Labcyte, Sunnyvale, CA) and then diluted into assay buffer (40 μL) to a 2× stock using a Thermo Fisher Combi (Thermo Fisher Scientific, Waltham, MA).
Calcium flux was measured using the Functional Drug Screening System (FDSS) 6000 or 7000 (Hamamatsu Corporation, Tokyo, Japan) as an increase in the fluorescent static ratio. Compounds were applied to cells (20 μL, 2×) using the automated system of the FDSS at 2-4 seconds into the protocol and the data were collected at 1 Hz. At 144 seconds, 10 μL of an EC20 concentration of the muscarinic receptor agonist acetylcholine was added (5×), followed by the addition of 12 μL of an EC80 concentration of acetylcholine at the 230 second time point (5×). Agonist activity was analyzed as a concentration-dependent increase in calcium mobilization upon compound addition. Positive allosteric modulator activity was analyzed as a concentration-dependent increase in the EC20 acetylcholine response. Antagonist activity was analyzed as a concentration-dependent decrease in the EC80 acetylcholine response. Concentration-response curves were generated using a four-parameter logistical equation in XLFit curve fitting software (IDBS, Bridgewater, NJ) for Excel (Microsoft, Redmond, WA) or Prism (GraphPad Software, Inc., San Diego, CA).
Compounds were synthesized as described above. Activity (EC50 and Emax) was determined in the mAChR M4 cell-based functional assay as described above and the data are shown in Tables 2-4. The compound number corresponds to the compound numbers used in Table 1.

Structure (SMILES) | Emax at 30 µM (CHO-K1) [%] | EC50 [nM] | Emax (CHO-K1) [%]
Cc1c(N2CCc3ncc(-c4cnn(Cc5ccccn5)c4)cc3C2)nn2cnnc2c1C [Compound 24, 6-(7,8-dimethyl-[1,2,4]triazolo[4,3-b]pyridazin-6-yl)-3-[1-(2-pyridylmethyl)pyrazol-4-yl]-7,8-dihydro-5H-1,6-naphthyridine] | 94 |  | 
Cc1c(N2CCc3ncc(N4CCC5OCCCC5C4)cc3C2)nn2cnnc2c1C (stereo not shown) [Compound 25, 6-[6-(7,8-dimethyl-[1,2,4]triazolo[4,3-b]pyridazin-6-yl)-7,8-dihydro-5H-1,6-naphthyridin-3-yl]-2,3,4,4a,5,7,8,8a-octahydropyrano[3,2-c]pyridine] | 65 | 348 | 
Cc1c(N2CCc3ncc(NCC4CCCO4)cc3C2)nn2cnnc2c1C (stereo not shown) [Compound 26, 6-(7,8-dimethyl-[1,2,4]triazolo[4,3-b]pyridazin-6-yl)-N-(tetrahydrofuran-2-ylmethyl)-7,8-dihydro-5H-1,6-naphthyridin-3-amine] | 75 | 737 | 
COc1ccc(Nc2cnc3c(c2)CN(c2nn4cnnc4c(C)c2C)CC3)c(F)c1F [Compound 27, N-(2,3-difluoro-4-methoxy-phenyl)-6-(7,8-dimethyl-[1,2,4]triazolo[4,3-b]pyridazin-6-yl)-7,8-dihydro-5H-1,6-naphthyridin-3-amine] | 77 | 597 | 
COc1ccc(Nc2cnc3c(c2)CN(c2nn4cnnc4c(C)c2C)CC3)c(F)c1 [Compound 28, 6-(7,8-dimethyl-[1,2,4]triazolo[4,3-b]pyridazin-6-yl)-N-(2-fluoro-4-methoxy-phenyl)-7,8-dihydro-5H-1,6-naphthyridin-3-amine] | 93 | 231 | 
Cc1c(N2CCc3ncc(Nc4c(F)ccc(Cl)c4F)cc3C2)nn2cnnc2c1C [Compound 29, N-(3-chloro-2,6-difluoro-phenyl)-6-(7,8-dimethyl-[1,2,4]triazolo[4,3-b]pyridazin-6-yl)-7,8-dihydro-5H-1,6-naphthyridin-3-amine] | 87 | 443 | 
Cc1c(N2CCc3ncc(Nc4cc(F)cc(F)c4F)cc3C2)nn2cnnc2c1C [Compound 30, 6-(7,8-dimethyl-[1,2,4]triazolo[4,3-b]pyridazin-6-yl)-N-(2,3,5-trifluorophenyl)-7,8-dihydro-5H-1,6-naphthyridin-3-amine] | 94 | 120 | 
COc1cc(F)c(Nc2cnc3c(c2)CN(c2nn4cnnc4c(C)c2C)CC3)c(F)c1 [Compound 31, N-(2,6-difluoro-4-methoxy-phenyl)-6-(7,8-dimethyl-[1,2,4]triazolo[4,3-b]pyridazin-6-yl)-7,8-dihydro-5H-1,6-naphthyridin-3-amine] | 88 | 455 | 
Cc1c(N2CCc3ncc(Nc4cc(F)ccc4F)cc3C2)nn2cnnc2c1C [Compound 32, N-(2,5-difluorophenyl)-6-(7,8-dimethyl-[1,2,4]triazolo[4,3-b]pyridazin-6-yl)-7,8-dihydro-5H-1,6-naphthyridin-3-amine] | 102 | 84.8 | 
Cc1c(N2CCc3ncc(Nc4ccccc4F)cc3C2)nn2cnnc2c1C [Compound 33, 6-(7,8-Dimethyl-[1,2,4]triazolo[4,3-b]pyridazin-6-yl)-N-(2-fluorophenyl)-5,6,7,8-tetrahydro-1,6-naphthyridin-3-amine] |  | 161 | 94
Cc1c(N2CCc3ncc(Nc4cc(Cl)ccc4F)cc3C2)nn2cnnc2c1C [Compound 34, N-(5-chloro-2-fluoro-phenyl)-6-(7,8-dimethyl-[1,2,4]triazolo[4,3-b]pyridazin-6-yl)-7,8-dihydro-5H-1,6-naphthyridin-3-amine] | 93 | 562 | 
Cc1cc(-c2cnc3c(c2)CN(c2nn4cnnc4c(C)c2C)CC3)cc(Cl)n1 [Compound 35, 3-(2-chloro-6-methyl-4-pyridyl)-6-(7,8-dimethyl-[1,2,4]triazolo[4,3-b]pyridazin-6-yl)-7,8-dihydro-5H-1,6-naphthyridine] | 78 | 1900 | 
Cc1c(N2CCc3ncc(-c4ccc(C(F)(F)F)nc4)cc3C2)nn2cnnc2c1C [Compound 36, 6-(7,8-dimethyl-[1,2,4]triazolo[4,3-b]pyridazin-6-yl)-3-[6-(trifluoromethyl)-3-pyridyl]-7,8-dihydro-5H-1,6-naphthyridine] | 85 | 295 | 
Cc1ncc(-c2cnc3c(c2)CN(c2nn4cnnc4c(C)c2C)CC3)cn1 [Compound 37, 6-(7,8-dimethyl-[1,2,4]triazolo[4,3-b]pyridazin-6-yl)-3-(2-methylpyrimidin-5-yl)-7,8-dihydro-5H-1,6-naphthyridine] | 59 | 2280 | 
Cc1c(N2CCc3ncc(-c4ccc(C5CC5)nc4)cc3C2)nn2cnnc2c1C [Compound 38, 3-(6-cyclopropyl-3-pyridyl)-6-(7,8-dimethyl-[1,2,4]triazolo[4,3-b]pyridazin-6-yl)-7,8-dihydro-5H-1,6-naphthyridine] | 90 | 149 | 
Cc1ccc(-c2cnc3c(c2)CN(c2nn4cnnc4c(C)c2C)CC3)cn1 [Compound 39, 6-(7,8-dimethyl-[1,2,4]triazolo[4,3-b]pyridazin-6-yl)-3-(6-methyl-3-pyridyl)-7,8-dihydro-5H-1,6-naphthyridine] | 95 | 115 | 
Cc1c(N2CCc3ncc(-c4cncc(C#N)c4)cc3C2)nn2cnnc2c1C [Compound 40, 5-[6-(7,8-dimethyl-[1,2,4]triazolo[4,3-b]pyridazin-6-yl)-7,8-dihydro-5H-1,6-naphthyridin-3-yl]pyridine-3-carbonitrile] | 69 | 716 | 
COc1ccncc1-c1cnc2c(c1)CN(c1nn3cnnc3c(C)c1C)CC2 [Compound 41, 6-(7,8-dimethyl-[1,2,4]triazolo[4,3-b]pyridazin-6-yl)-3-(4-methoxy-3-pyridyl)-7,8-dihydro-5H-1,6-naphthyridine] | 81 | 442 | 
Cc1c(N2CCc3ncc(-c4ccc(F)nc4)cc3C2)nn2cnnc2c1C [Compound 42, 6-(7,8-dimethyl-[1,2,4]triazolo[4,3-b]pyridazin-6-yl)-3-(6-fluoro-3-pyridyl)-7,8-dihydro-5H-1,6-naphthyridine] | 94 | 217 | 
COc1ccc(-c2cnc3c(c2)CN(c2nn4cnnc4c(C)c2C)CC3)cn1 [Compound 43, 6-(7,8-dimethyl-[1,2,4]triazolo[4,3-b]pyridazin-6-yl)-3-(6-methoxy-3-pyridyl)-7,8-dihydro-5H-1,6-naphthyridine] | 94 | 182 | 
Cc1c(N2CCc3ncc(-c4cccnc4)cc3C2)nn2cnnc2c1C [Compound 44, 6-(7,8-dimethyl-[1,2,4]triazolo[4,3-b]pyridazin-6-yl)-3-(3-pyridyl)-7,8-dihydro-5H-1,6-naphthyridine] | 92 | 147 | 
Cc1c(N2CCc3ncc(Nc4cc(Cl)c(F)cc4F)cc3C2)nn2cnnc2c1C [Compound 45, N-(5-chloro-2,4-difluoro-phenyl)-6-(7,8-dimethyl-[1,2,4]triazolo[4,3-b]pyridazin-6-yl)-7,8-dihydro-5H-1,6-naphthyridin-3-amine] | 71 | 271 | 
